This data set in a line: Caco-2 cell monolayer bidirectional transport study. It counts as in vitro ADME. The following applies: human, Caco-2, pH 7.4. (In general: Caco-2 monolayers are a common model of the intestinal barrier.)

By Papp A→B is commonly meant the apparent permeability from the apical to the basolateral side of a cell layer. A higher Papp A→B goes with fast passage. A word on the Papp B→A: it is how fast a substance crosses the layer from the basolateral side. For orientation: efflux ratio means a quotient of directional permeabilities that is used to spot active efflux.

Structures are written as SMILES.

As for `CC(C)NCC(O)COc1cccc2ccccc12` (stereo not drawn) [Propranolol], the Papp A→B at 2 h, 100 µM was found to be 41.6 ± 2.4 ×10⁻⁶ cm/s; the apparent permeability from basolateral to apical (Papp B→A) at 2 h, 100 µM stood at 21.3 ± 0.7 ×10⁻⁶ cm/s; the efflux ratio at 2 h, 100 µM turned out to be 0.51.

These data come from article PMC4111571 (Pharmaceutical research, 2012).
